In ChEMBL document CHEMBL3044848, “Antiangiogenic and growth inhibitory effects of synthetic novel 1, 5-diphenyl-1,4 pentadiene-3-one-3-yl-ethanone pyridine curcumin analogues on Ehrlich ascites tumor in vivo” (Med Chem Res, 2008):
The source made the active and inactive calls. The calls are words filed in the database; no cut-off is given here.

Experiments:
EAT [1] = assay: Antitumor activity against EAT cells xenografted in Mus musculus (mouse) assessed as condensed nuclei at 100 mg/kg, ip administered on days 7,9 and 11 post tumor-injection measured on day 12 by acridine orange:ethidium bromide staining; assay type: functional, organism-based; design: dose 100 mg/kg
EAT [2] = assay: Antiangiogeneic activity against Mus musculus (mouse) EAT cells xenografted in Mus musculus Swiss albino (mouse) assessed as decrease in peritoneal microvessel density per high power field at 100 mg/kg, ip administered on days 7,9 and 11 measured on day 12 by H and E staining-based microscopic analysis; assay type: functional, organism-based; design: dose 100 mg/kg
[3] = Antitumor activity against Mus musculus (mouse) EAT cells xenografted in Mus musculus Swiss albino (mouse)assessed as increase in life span at 100 mg/kg, ip administered on days 7,9 and 11 post tumor-injection measured on day 12 relative to control; assay type: functional; conditions: route intraperitoneal
Mus musculus [4] = assay: Toxicity against Mus musculus Swiss albino (mouse) assessed as weight loss at 100 mg/kg, ip; assay type: organism-based; design: dose 100 mg/kg, route intraperitoneal; conditions: in vivo
Chorioallantoic membrane = assay: Antiangiogenesis activity against fertilized Gallus gallus (chicken) egg chorioallantoic membrane assessed as inhibition of neovascularization at 0.1 mM administered to 11 day old embryo measured on day 13 by microscopic analysis; assay type: functional, tissue-based
EAT [5] = assay: Antitumor activity against Mus musculus (mouse) EAT cells xenografted in Mus musculus Swiss albino (mouse) assessed as decrease in ascites volume at 100 mg/kg, ip administered on days 7,9 and 11 post tumor-injection measured on day 12 relative to control; assay type: functional, organism-based; design: dose 100 mg/kg
EAT [6] = assay: Antitumor activity against EAT cells xenografted in Mus musculus Swiss albino (mouse) assessed as apoptotic bodies at 100 mg/kg, ip administered on days 7,9 and 11 post tumor-injection measured on day 12 by Geimsa staining; assay type: functional, organism-based; design: dose 100 mg/kg
EAT [7] = assay: Antitumor activity against Mus musculus (mouse) EAT cells xenografted in Mus musculus Swiss albino (mouse) assessed as decrease in cell number at 100 mg/kg, ip administered on days 7,9 and 11 post tumor-injection measured on day 12 relative to control; assay type: functional, organism-based; design: dose 100 mg/kg
Mus musculus [8] = assay: Toxicity against Mus musculus Swiss albino (mouse) assessed as mortality at 100 mg/kg, ip; assay type: organism-based; design: dose 100 mg/kg, route intraperitoneal; conditions: in vivo
[9] = Antitumor activity against Mus musculus (mouse) EAT cells xenografted in Mus musculus Swiss albino (mouse) assessed as change in body weight at 100 mg/kg, ip administered on days 7,9 and 11 post tumor-injection measured on day 12 (reference value: 10.44 +/- 0.147); assay type: functional; conditions: route intraperitoneal

| SMILES | Activity (EAT [1]) | Activity (EAT [2]) | Activity [3] [%] | Activity (Mus musculus [4]) | inhibition (Chorioallantoic membrane) | Activity (EAT [5]) | Activity (EAT [6]) | Activity (EAT [7]) | Activity (Mus musculus [8]) | Activity [9] [g] |
| --- | --- | --- | --- | --- | --- | --- | --- | --- | --- | --- |
| O=C(/C=C/c1ccc(OCC(=O)c2cccnc2)cc1)/C=C/c1ccc(OCC(=O)c2cccnc2)cc1 | Active | Active | 66.6 | Non-toxic | Active | Active | Active | Active | Non-toxic | -4.96 |
| COc1cc(/C=C/C(=O)/C=C/c2ccc(OCC(=O)c3cccnc3)c(OC)c2)ccc1OCC(=O)c1cccnc1 | Active | Active | 88.8 | Non-toxic | Active | Active | Active | Active | Non-toxic | -5.07 |
